Source: patent US20250340561A1, “QUINAZOLINE COMPOUND FOR INDUCING DEGRADATION OF G12D MUTANT KRAS PROTEIN” (Astellas Pharma Inc., priority 2021, published 2025)
pIC50: −log10 of the molar value.

Columns and labels:
[1] = system: human G12D mutant KRAS-positive pancreatic cancer line AsPC-1; test: Test Example 3: non-anchorage-dependent cell growth inhibition, spheroid 3D cell culture; format: cell-based; conditions: Homo sapiens, ASPC1, 144 h, AsPC-1 spheroid 3D culture, 6 days, CellTiter Glo 2.0
Protocol: Test Example 3: Evaluation of Non-Anchorage-Dependent Cell Growth Inhibition Action on Human G12D Mutant KRAS-Positive Pancreatic Cancer Line AsPC-1
The non-anchorage-dependent cell growth inhibition action of test compounds was evaluated by spheroid 3D cell culture.
AsPC-1 cells were seeded on a low-cell-adhesive round bottom 384-well plate (PrimeSurface: from Sumitomo Bakelite) at 36 μL/well to give 5×10^2 cells per well. The cell culture was performed under the same conditions as in the Test Example 2.
The next day, the test compounds (6 points having final concentrations in the range of 10 μM to 3.0 nM) and DMSO, which was the solvent for the test compounds, as a negative control were diluted 100-fold with a fresh medium and were added at 4 μL per well. After culturing in the presence of […] at 37° C. for 6 days, CellTiter Glo 2.0 (from Promega) was added at 20 μL per well. After stirring with a plate mixer (from FINEPCR) at normal temperature for 1 hour, the luminescent signals were measured with ARVO X3 (from PerkinElmer).
With the signaling value in treatment with DMSO taken as […] and with the signaling value in the medium alone without cells taken as […], the […] inhibition values (IC50) were calculated by Sigmoid-Emax model nonlinear regression analysis. The molecular weights of the test compounds were calculated as the molecular weights of the dihydrochloride for Example No. 22, the trihydrochlorides for Example Nos. 2-7, 9-12, 14-18 and 30, the tetrahydrochlorides for Example Nos. 19 and 46, the pentahydrochloride for Example No. 21 and the free forms forming no salt for the remaining Example Nos. The results for some test compounds of the formula (I) are shown in Table 4.

[2] = system: phosphorylation of ERK (Thr202/Tyr204); test: Test Example 2: ERK phosphorylation inhibition action in AsPC-1, Cell ELISA; format: cell-based, human; conditions: Homo sapiens, ASPC1, 24 h, AsPC-1 cells, 0% = 1 μM trametinib
Protocol: Test Example 2: Evaluation of ERK Phosphorylation Inhibition Action on Human G12D Mutant KRAS-Positive Pancreatic Cancer Line AsPC-1
The ERK phosphorylation inhibition action of test compounds was evaluated by measuring phosphorylation of the 202th threonine (Thr202) and the 204th tyrosine (Tyr204) of ERK located downstream of the KRAS signal by Cell ELISA.
AsPC-1 cells were seeded on a 384-well plate (from Greiner bio-one) at 36 μL/well to give 2.0×10^4 cells per well. As for the cell culture conditions, a RPMI 1640 medium containing 10% fetal bovine serum was used in the presence of 5% CO2 at 37° C.
The next day, the test compounds (6 points having final concentrations in the range of 10 μM to 3.0 nM), trametinib (MEK inhibitor) of a final concentration of 1 μM as a positive control and DMSO, which was the solvent for the test compounds, as a negative control were diluted 100-fold with a fresh medium and were added at 4 μL per well. The cells were then cultured for 24 hours. After culturing, a 30% glyoxal solution (40% glyoxal [from Nacalai Tesque] was diluted with PBS) was quickly added at 30 μL per well, and the plate was allowed to stand for 90 minutes at room temperature to thus immobilize the cells. Then, the plate was centrifuged to remove the supernatant (using a centrifugal dehydrator machine, the supernatant was removed by the same method hereinafter), and 0.1% Triton X-100-containing PBS was added at 20 μL per well. After allowing to stand for 10 minutes at room temperature, the supernatant was removed by centrifugation, and the same operation was further repeated. Next, 0.5% SDS-containing PBS was added at 20 μL per well, and after allowing to stand at room temperature for 30 minutes, the supernatant was removed by centrifugation. Subsequently, a blocking solution (Intercept Blocking Buffer) was added at 20 μL per well, and the plate was allowed to stand for 1 hour at room temperature. The supernatant was removed by centrifugation, and an ERK (Thr202/Tyr204) phosphorylation antibody (Phospho-p44/42 MAPK (Erk 1/2) (Thr202/Tyr204) (D13.14.4E) XP Rabbit mAb; from Cell Signaling Technology) diluted 2,500-fold with a blocking solution was added at 10 or 15 μL per well as a primary antibody. The plate was allowed to stand at 4° C. overnight.
The next day, the plate was centrifuged to remove the supernatant. 0.05% Tween-20-containing PBS was added at 50 μL per well, and the supernatant was removed by centrifugation to thus wash each well. The washing was performed three times in total. After washing, Goat anti-Rabbit IgG H&L (IRDye 800CW) diluted 1,000-fold with a blocking solution was added at […] as a secondary antibody, and the plate was allowed to stand for 1 hour at room temperature. The plate was centrifuged to remove the supernatant, and each well was washed three times with 0.05% Tween-20-containing PBS in the same manner as after the primary antibody reaction. After removing the supernatant by centrifuging the plate, the plate was dried as it was with air at room temperature for 3 hours or more, and the 800-nm fluorescent signals were measured with Aerius.
With the signaling value at the time of addition of DMSO taken as 100% and with the signaling value at the time of addition of 1 μM trametinib taken as 0%, the 50% inhibition values (IC50) were calculated by Sigmoid-Emax model nonlinear regression analysis. The molecular weights of the test compounds were calculated as the molecular weights of the dihydrochloride for Example No. 22, the trihydrochlorides for Example Nos. 2-7, 9-12, 14-18 and 30, the tetrahydrochlorides for Example Nos. 19 and 46, the pentahydrochloride for Example No. 21 and the free forms forming no salt for the remaining Example Nos. The results for some test compounds of the formula (I) are shown in Table 3.

SMILES | pIC50 [1] | pIC50 [2]
Cc1c(F)cc2[nH]ncc2c1-c1c(C2CC2)cc2c(N3C[C@@H]4C[C@H]3CN4)nc(OC3CCOCC3)nc2c1OCc1ccc(-c2cn([C@H](C(=O)N3C[C@H](O)C[C@H]3C(=O)N[C@@H](CO)c3ccccc3F)C(C)C)nn2)cc1 [Example 30] | 6.49 | 6.73
Cc1ncsc1-c1ccc([C@H](CO)NC(=O)[C@@H]2C[C@@H](O)CN2C(=O)[C@H](C(C)C)n2cc(-c3ccc(COc4c(-c5c(C)c(F)cc6[nH]ncc56)c(C5CC5)cc5c(N6C[C@@H]7C[C@H]6CN7)nc(O[C@H]6CCN(CCO)C6)nc45)cc3)nn2)cc1 [Example 31] | 6.49 | 6.71
COCCN1CC[C@H](Oc2nc(N3C[C@@H]4C[C@H]3CN4)c3cc(C4CC4)c(-c4c(C)c(F)cc5[nH]ncc45)c(OCc4ccc(-c5cn([C@H](C(=O)N6C[C@H](O)C[C@H]6C(=O)N[C@@H](CO)c6ccc(-c7scnc7C)cc6)C(C)C)nn5)cc4)c3n2)C1 [Example 32] | 6.73 | 7.04
Cc1ncsc1-c1ccc([C@H](CO)NC(=O)[C@@H]2C[C@@H](O)CN2C(=O)[C@H](C(C)C)n2cc(-c3ccc(COc4c(-c5c(C)c(F)cc6[nH]ncc56)c(C5CC5)cc5c(N6C[C@@H]7C[C@H]6CN7)nc(O[C@H]6CCN(CC(F)F)C6)nc45)cc3)nn2)cc1 [Example 33] | 7.38 | 7.49
Cc1ncsc1-c1ccc([C@H](CO)NC(=O)[C@@H]2C[C@@H](O)CN2C(=O)[C@H](C(C)C)n2cc(-c3ccc(COc4c(-c5c(C)c(F)cc6[nH]ncc56)c(C5CC5)cc5c(N6C[C@@H]7C[C@H]6CN7)nc(O[C@@H]6CCN(CC(F)F)C6)nc45)cc3)nn2)cc1 [Example 34] | 7.48 | 7.59
Cc1ncsc1-c1ccc([C@H](CO)NC(=O)[C@@H]2C[C@@H](O)CN2C(=O)[C@H](C(C)C)n2cc(-c3ccc(COc4c(-c5c(C)c(F)cc6[nH]ncc56)c(C5CC5)cc5c(N6C[C@@H]7C[C@H]6CN7)nc(OC6CCOCC6)nc45)cc3)nn2)nc1 [Example 35] | 7.37 | 7.26
Cc1ncoc1-c1ccc([C@H](CO)NC(=O)[C@@H]2C[C@@H](O)CN2C(=O)[C@H](C(C)C)n2cc(-c3ccc(COc4c(-c5c(C)c(F)cc6[nH]ncc56)c(C5CC5)cc5c(N6C[C@@H]7C[C@H]6CN7)nc(OC6CCOCC6)nc45)cc3)nn2)cc1 [Example 38] | 7.57 | 7.55
CO[C@H](C)[C@@H](C)Oc1nc(N2C[C@@H]3C[C@H]2CN3)c2cc(C3CC3)c(-c3c(C)c(F)cc4[nH]ncc34)c(OCc3ccc(-c4cn([C@H](C(=O)N5C[C@H](O)C[C@H]5C(=O)N[C@@H](CO)c5ccc(-c6scnc6C)cc5)C(C)C)nn4)cc3)c2n1 [Example 39] | 7.74 | 8.22
COC[C@@H](C)Oc1nc(N2C[C@@H]3C[C@H]2CN3)c2cc(C3CC3)c(-c3c(C)c(F)cc4[nH]ncc34)c(OCc3ccc(-c4cn([C@H](C(=O)N5C[C@H](O)C[C@H]5C(=O)N[C@@H](CO)c5ccc(-c6scnc6C)cc5)C(C)C)nn4)cc3)c2n1 [Example 40] | 7.70 | 8.15
CO[C@@H](C)[C@H](C)Oc1nc(N2C[C@@H]3C[C@H]2CN3)c2cc(C3CC3)c(-c3c(C)c(F)cc4[nH]ncc34)c(OCc3ccc(-c4cn([C@H](C(=O)N5C[C@H](O)C[C@H]5C(=O)N[C@@H](CO)c5ccc(-c6scnc6C)cc5)C(C)C)nn4)cc3)c2n1 [Example 41] | 7.51 | 7.77
Cc1ncsc1-c1ccc([C@H](CO)NC(=O)[C@@H]2C[C@@H](O)CN2C(=O)[C@H](C(C)C)n2cc(-c3ccc(COc4c(-c5c(C)c(F)cc6[nH]ncc56)c(C5CC5)cc5c(N6C[C@@H]7C[C@H]6CN7)nc(O[C@@H](C)[C@H](C)O)nc45)cc3)nn2)cc1 [Example 42] | 7.34 | 7.66
CC[C@@H](C)Oc1nc(N2C[C@@H]3C[C@H]2CN3)c2cc(C3CC3)c(-c3c(C)c(F)cc4[nH]ncc34)c(OCc3ccc(-c4cn([C@H](C(=O)N5C[C@H](O)C[C@H]5C(=O)N[C@@H](CO)c5ccc(-c6scnc6C)cc5)C(C)C)nn4)cc3)c2n1 [Example 43] | 7.80 | 7.96
Cc1ncsc1-c1ccc([C@H](CO)NC(=O)[C@@H]2C[C@@H](O)CN2C(=O)[C@H](C(C)C)n2cc(-c3ccc(COc4c(-c5c(C)c(F)cc6[nH]ncc56)c(C5CC5)cc5c(N6C[C@@H]7C[C@H]6CN7)nc(OCC67CCCN6CCC7)nc45)cc3)nn2)cc1 [Example 44] | 6.58 | 7.02
Cc1ncsc1-c1ccc([C@H](CO)NC(=O)[C@@H]2C[C@@H](O)CN2C(=O)[C@H](C(C)C)n2cc(-c3ccc(COc4c(-c5c(C)c(F)cc6[nH]ncc56)c(C5CC5)cc5c(N6C[C@@H]7C[C@H]6CN7)nc(O[C@H](C)CN6CCOCC6)nc45)cc3)nn2)cc1 [Example 45] | 7.70 | 7.96
Cc1ncsc1-c1ccc([C@H](CO)NC(=O)[C@@H]2C[C@@H](O)CN2C(=O)[C@H](C(C)C)n2cc(-c3ccc(COc4c(-c5c(C)c(F)cc6[nH]ncc56)c(C5CC5)cc5c(N6C[C@@H]7C[C@H]6CN7)nc(O[C@H](C)CN(C)C)nc45)cc3)nn2)cc1 [Example 46] | 7.25 | 7.66
CO[C@H](C)COc1nc(N2C[C@@H]3C[C@H]2CN3)c2cc(C3CC3)c(-c3c(C)c(F)cc4[nH]ncc34)c(OCc3ccc(-c4cn([C@H](C(=O)N5C[C@H](O)C[C@H]5C(=O)N[C@@H](CO)c5ccc(-c6scnc6C)cc5)C(C)C)nn4)cc3)c2n1 [Example 47] | 7.66 | 7.74
CO[C@@H](C)COc1nc(N2C[C@@H]3C[C@H]2CN3)c2cc(C3CC3)c(-c3c(C)c(F)cc4[nH]ncc34)c(OCc3ccc(-c4cn([C@H](C(=O)N5C[C@H](O)C[C@H]5C(=O)N[C@@H](CO)c5ccc(-c6scnc6C)cc5)C(C)C)nn4)cc3)c2n1 [Example 48] | 7.70 | 8.10
Cc1ncsc1-c1ccc([C@H](CO)NC(=O)[C@@H]2C[C@@H](O)CN2C(=O)[C@H](C(C)C)n2cc(-c3ccc(COc4c(-c5c(C)c(F)cc6[nH]ncc56)c(C5CC5)cc5c(N6C[C@@H]7C[C@H]6CN7)nc(OC6CCOCC6)nc45)cc3F)nn2)cc1 [Example 49, (4R)-1-[(2S)-2-(4-{4-[({6-cyclopropyl-4-[(1S,4S)-2,5-diazabicyclo[2.2.1]heptan-2-yl]-7-(6-fluoro-5-methyl-1H-indazol-4-yl)-2-[(oxan-4-yl)oxy]quinazolin-8-yl}oxy)methyl]-2-fluorophenyl}-1H-1,2,3-triazol-1-yl)-3-methylbutanoyl]-4-hydroxy-N-{(1R)-2-hydroxy-1-[4-(4-methyl-1,3-thiazol-5-yl)phenyl]ethyl}-L-prolinamide] | 7.34 | 7.68
